Measured values taken from patent publication US10351519B2, “Sulfamate derivative compounds, processes for preparing them and their uses” (BIO-PHARM SOLUTIONS CO., LTD., priority 2016, dated 2019).

Assays:
Assay type in all cases: in vivo
ICR mice [1] = experiment: Chemical induced seizure model (PIC, picrotoxin)
Method: Picrotoxin (PIC) were used to induce the behavioral seizures in the experiments. Male ICR mice (purchased from Orient Bio Inc. Korea) of body weight 19-26 g (mice) were used for these studies. The test materials were administered intraperitoneal (ip) route in a volume of 10 ul/g (mice) weight in mice, respectively. Pharmacological effects of the test materials were evaluated to compared test groups (n=6) with a control group (n=6). Control group was administrated vehicle, only. The peak time was determined by administration of test material's random dose for 0.5, 1, 2, 4 hour. The time that the most protect was defined as a peak time and ED50 was determined by other dose administration at the peak time. Chemical (PIC) was dissolved in 0.9% saline and administered subcutaneously (s.c.) at its CD97 (convulsive dose 97%), the dose of Chemical (PIC) that produced clonic seizures in 97% into a loose fold of skin in the midline of the neck in a volume of 10 ul/g (mice) body weight. The animals were then transferred to observation cages and observed continuously for 45 min (PIC). Clonic seizure was elicited in approximately 97% of control group. Protection was defined as a complete absence of clonic seizure over the 45-min observation period. The effective dose of compound necessary to protect against generalized convulsive seizures to 50% of controls (i.e. ED50) was determined by log probit analysis using SPSS software program (SPSS Inc.). (Reference; White H. S., J. H. Woodhead, K. S. Wilcox, J. P. Stables, H. J. Kupferberg, and H. H. Wolf. General Principles; Discovery and Preclinical De-velopment of Antiepileptic Drugs. In: R. H. Levy, R. H. Mattson, B. S. Meldrum, and E. Perucca, eds. Antiepileptic Drugs, 5th Ed. Lippincott Williams & Wilkins, Philadelphia 2002: pp. 36-48.) The obtained results are shown in following Table 10.

ICR mice [2] = experiment: Anti-epilepsy activity, MES test, mouse
Method: (§1) In the MES test (Ref., G. Villetti et al. Neuropharmacology 40 (2001) 866-878), an electrical stimulus (mice: 50 mA, 60 Hz, 0.2 sec, and rats: 150 mA, 60 Hz, 0.2 sec in the test animal) supplied by an 11A Shocker (IITC Life Science Company) was delivered through corneal electrodes. All mice or rats assigned to any electroshock at peak time were treated with each test compound sample which was dissolved in 30% PEG 400 or 20% tween 80 prepared by saline solvent applied orally before the test. […] Three doses of the test sample were administered orally to 9-18 animals (3-6 mice per dose) for evaluating the respective doses at which 50% of the animals were protected from seizure (ED50). The ED50 value (median effective dose) was calculated by Litchfield and Wicoxon log-probit method which is a dose-response relationship. Experimental animals, male ICR mice and male SD rats, were purchased from OrientBio, Samtako, or Nara Biotech, Korea, and housed in cages (4-5 mice or 3 rats per cage) for 4-5 days. The range of mice body weight was between 19 and 25 grams and range of rats body weight was between 100 and 130 grams.

Sprague-Dawley rats [3] = experiment: Antiallodynic activity on Chung model (SNL, spinal nerve ligation); settings: orally
From the text: Male Sprague-Dawley rats (100-130 g, Orient Bio, Korea) were habituated for 1 week before the experiment and allowed free access to food and water throughout the experimentation. Room temperature and humidity were maintained at 24±2 and 50±10%, respectively. The neuropathic surgery (SNL, Spinal nerve ligation) model was done as described in Kim and Chung (1992). Briefly, an animal was put under gaseous anesthesia with isoflurane. The left lumber spinal nerve L5 and L6 were isolated and tightly ligated with 6-0 silk thread. The wound muscle was closed with Catgut® chrom 3/0 thread and skin was closed with Dafilon 3/0 tread. Sham controls were prepared in the same manner with the spinal nerves exposed, but with no ligated L5 and L6 nerves. Preparation of the vehicle controls were identical to the group treated with compound, except for administration of vehicles without compound in the vehicle control group.
Tactile sensitivity (Mechanical allodynia) was evaluated using von Frey monofilaments before and after treatment, and animals were included in the study only if the withdrawal threshold value was less than 4 g. One week after surgery, SNL-operated animals, sham-operated animals and vehicle control animals were tested for tactile sensitivity with von Frey monofilaments 3 trials in each animal. All Animals were placed in a stainless steel mash chamber and habituated for 30 min in the test cage. The tactile sensitivity for the ipsilateral hind paw was measured using the up-and-down method (Dixon, 1980) with seven von Frey monofilaments (0.4, 1, 2, 4, 6, 8, and 15 g) in 3 trials. The tactile sensitivity test was followed by Dixon's method (Dixon, 1980). The 50% paw withdrawal threshold for each paw was calculated using the following formula: [Xth] log=[vFr] log+ky where [vFr] is the force of the last von Frey used, k=0.2249 which is the average interval (in log units) between the von Frey monofilaments, and y is a value that depends upon the pattern of withdrawal responses (Dixon, 1980).
All animals were fasted 18 h before the administration of the compounds. Antiallodynic effect of compounds were evaluated at the three dose, orally administrated in a volume of 5 ul/g, bw in a vehicle of 30% (v/v) PEG 400 or 20% (v/v) Tween 80. The test was performed at the peak time of efficacy after compound administration.
The relative values compared to the sham group (% control) were calculated and shown in Table 3, which show an antiallodynic effect of the test compounds on SNL model in rats.

SD rats = experiment: Anti-epilepsy activity, MES test, rat
Method: as §1

Sprague-Dawley rats [4] = experiment: Lithium-pilocarpine induced epilepsy test, prevention; settings: i.p.
Method: Male Sprague-Dawley rats (purchased from Orient Bio Inc. Korea) of body weight 175-200 grams were used for these studies and 3 rats per cage were housed for 4-5 days. On the day prior to SE, rats received 127 mg/kg lithium chloride (Sigma, St. Louis, Mo., U.S.A.) intraperitoneally (i.p.). Approximately 18-20 h following this treatment, rats were given an i.p. injection of CD97 dose (30-43 mg/kg) pilocarpine (Sigma). An i.p. injection of 2 mg/kg methyl-scopolamine (Sigma) was administered 30 min prior to pilocarpine to block the effects of the muscarinic agonist on peripheral cholinergic receptors. Test drugs were dissolved in 30% PEG 400 or 20% tween80 (Sigma).
The drugs were administered intraperitoneally (i.p.) in a volume of 2 ul/g body weight. Pharmacological effects of all of the test materials were evaluated to compare test groups (n=6) with a control group (n=6). Control group was administered vehicle only. The efficacy was measured 0.5, 1, 2, or 4 hours after the administration of the test material. The time point that the most animals were protected was defined as peak time and the ED50 was determined at peak time. The animals were then transferred to observation cages and observed continuously for 90 min. Seizure was elicited in approximately 95% of the control group. Protection was defined as complete absence of seizure grade 3-5 (Racine scale; Racine, 1972) over the 90-min observation period. The effective dose of the compound necessary to protect 50% of the animals against seizures compared to controls (i.e. ED50) was determined by a curve fitting program (Excel 2007, Microsoft).

Sprague-Dawley rats [5] = experiment: Antiallodynic activity on Complete Freund's Adjuvant (CFA)-induced inflammatory pain model; settings: intraperitoneally
Method: Male, Sprague-Dawley rats (210-250 g, Nara Bio, Korea) were habituated for 1 week before CFA injection and allowed free access to food and water throughout the experimentation. Room temperature and humidity were maintained at 24±2 and 50±10%, respectively.
CFA-induced inflammatory pain was induced by the procedure of Nagakura et al. (2003) and Gregory P. et al. (2010) with minor modifications. CFA (sigma, USA) was injected in the right plantar with a 100 ul volume under gaseous anesthesia with isoflurane. Sham controls were injected with 100 ul of saline and preparation of the vehicles without compound in the vehicle control group. Tactile sensitivity (Mechanical allodynia) was evaluated using von Frey monofilaments before and after treatment, and the animals were included in the study only if the withdrawal threshold value was less than 4 g. One week after surgery, CFA-infused treatment animals (n=4-6), sham-operated animals (n=12), and vehicle control animals (n=17) were tested for tactile sensitivity with von Frey monofilaments 3 trials for each animal. All Animals were placed in a stainless steel mesh chamber and habituated for 30 min in the test box. The tactile sensitivity for ipsilateral hind paw was measured using the up-and-down method (Dixon, 1980) with seven von Frey monofilaments (0.4, 1, 2, 4, 6, 8, and 15 g) to 3 trials. Tactile sensitivity test was followed by Dixon's method (Dixon, 1980). The 50% paw withdrawal threshold for each paw was calculated using the following formula: [Xth] log=[vFr] log+ky where [vFr] is the force of the last von Frey used, k=0.2249 which is the average interval (in log units) between the von Frey monofilaments, and y is a value that depends upon the pattern of withdrawal responses (Dixon, 1980).
Antiallodynic effect of compound was evaluated at the dose of 10-60 mg/kg (n=4-6), intraperitoneally administrated in a volume of 5 ul/g bw in a vehicle of 30% (v/v) PEG or 20% (v/v) Tween 80. The test was performed peak time of efficacy (0.5 or 1 hr) after compound administration.
The relative values compared to the sham (% control) were calculated and shown in Table 4, which show an antiallodynic effect of Compound 1 on CFA-induced pain model in rats.

SMILES | PIC(ip) Peak Time (ICR mice [1]) | PIC(ip) efficacy % (ICR mice [1]; 30 mg/kg) | MES test (po) Peak time (ICR mice [2]) | responders at 100 mg/kg (ICR mice [2]; po, 100 mg/kg, read-out: MES test (po) efficacy %) | ED50 (Sprague-Dawley rats [3]; Rattus norvegicus, po, at peak time) | SNL Peak Time (Sprague-Dawley rats [3]) | MES test (po) Peak time (SD rats) | MES test (po) efficacy % (SD rats; 20 mg/kg) | Lithium pilocarpine model (pre) peak time (Sprague-Dawley rats [4]) | Lithium pilocarpine model (pre) efficacy % (Sprague-Dawley rats [4]; 50 mg/kg) | ED50 (Sprague-Dawley rats [5]; Rattus norvegicus, ip, at peak time) | CFA-induced pain model Peak Time (Sprague-Dawley rats [5])
C[C@@H](OS(N)(=O)=O)[C@H](OS(N)(=O)=O)c1ccccc1Cl [Example 85] | 4 h | 30(33.3%) | 2 h | 16.6% |  |  |  |  |  |  |  | 
COCO[C@@H](c1ccccc1Cl)[C@H](C)OS(N)(=O)=O [Example 69, (1S, 2S)-1-(2-chlorophenyl)-1-(methoxymethoxy)propan-2-yl sulfamate] |  |  |  |  | 48.2 mg/kg | 1 h | 1 h | 16.6% | 1 h | 33.3% | 29.5 mg/kg | 0.5 h
